Test results: PubChem BioAssay (NCI)
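96-well plates; 48 h exposure; 5 concentrations. Endpoints by linear interpolation between flanking doses. Not reached: highest tested concentration assigned. TGI marks complete inhibition of growth.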

Legend:
Experiment in all cases: NCI tumour cell line growth inhibition, 48 h
[1] = system: 786-0 renal
[2] = system: A498 renal
[3] = system: A549 NSCLC
[4] = system: ACHN renal
[5] = system: CAKI-1 renal
[6] = system: CCRF-CEM leukemia
[7] = system: COLO 205 colon
[8] = system: DLD-1 colon
[9] = system: DMS 114 small cell lung
[10] = system: DMS 273 small cell lung
[11] = system: EKVX NSCLC
[12] = system: HCC-2998 colon
[13] = system: HCT-116 colon
[14] = system: HCT-15 colon
[15] = system: HL-60(TB) leukemia
[16] = system: HOP-18 NSCLC
[17] = system: HOP-62 NSCLC
[18] = system: HOP-92 NSCLC
[19] = system: HT29 colon
[20] = system: IGROV1 ovarian
[21] = system: K-562 leukemia
[22] = system: KM12 colon
[23] = system: KM20L2 colon
[24] = system: LOX IMVI melanoma
[25] = system: LXFL 529 NSCLC
[26] = system: M14 melanoma
[27] = system: M19-MEL melanoma
[28] = system: MALME-3M melanoma
[29] = system: MOLT-4 leukemia
[30] = system: NCI-H226 lung
[31] = system: NCI-H23 lung
[32] = system: NCI-H460 lung
[33] = system: NCI-H522 lung
[34] = system: OVCAR-3 ovarian
[35] = system: OVCAR-4 ovarian
[36] = system: OVCAR-5 ovarian
[37] = system: OVCAR-8 ovarian
[38] = system: RPMI-8226 leukemia
[39] = system: RXF 393 renal
[40] = system: RXF-631 renal
[41] = system: SF-268 CNS
[42] = system: SF-295 CNS
[43] = system: SF-539 CNS
[44] = system: SK-MEL-2 melanoma
[45] = system: SK-MEL-28 melanoma
[46] = system: SK-OV-3 ovarian
[47] = system: SN12C renal
[48] = system: SNB-19 CNS
[49] = system: SNB-75 CNS
[50] = system: SNB-78 CNS
[51] = system: SR leukemia
[52] = system: SW-620 colon
[53] = system: TK-10 renal
[54] = system: U251 CNS
[55] = system: UACC-257 melanoma
[56] = system: UACC-62 melanoma
[57] = system: UO-31 renal
[58] = system: XF 498 CNS
[59] = system: SK-MEL-5 melanoma

`O=c1ncc(F)cn1C1OC(CO)C(O)C1O` (stereo unspecified) was tested, and the TGI [1] was greater than 100 µM, the TGI [2] was greater than 100 µM and the TGI [3] was greater than 100 µM. It also gave a TGI [4] greater than 100 µM, a TGI [5] greater than 100 µM and a TGI [6] greater than 63.6 µM. The TGI [7] was greater than 37.9 µM, the TGI [8] was greater than 100 µM and the TGI [9] was greater than 41.9 µM. The TGI [10] was greater than 44.6 µM, the TGI [11] was greater than 100 µM and the TGI [12] was greater than 51.4 µM. It also gave a TGI [13] greater than 100 µM, a TGI [14] greater than 100 µM and a TGI [15] greater than 52 µM. For the same molecule, the TGI [16] was greater than 100 µM, the TGI [17] was greater than 100 µM and the TGI [18] was greater than 100 µM. It also gave a TGI [19] greater than 73.3 µM, a TGI [20] greater than 80 µM and a TGI [21] greater than 100 µM. For the same molecule, the TGI [22] was greater than 51.2 µM, the TGI [23] was greater than 70.6 µM and the TGI [24] was greater than 59.8 µM. For the same molecule, the TGI [25] was greater than 43.8 µM, the TGI [26] was greater than 100 µM and the TGI [27] was greater than 54 µM. It also gave a TGI [28] greater than 51.5 µM, a TGI [29] greater than 54.3 µM and a TGI [30] greater than 100 µM. It also gave a TGI [31] greater than 100 µM, a TGI [32] greater than 73 µM and a TGI [33] greater than 70.2 µM. It also gave a TGI [34] greater than 67.4 µM, a TGI [35] greater than 100 µM and a TGI [36] greater than 100 µM. It also gave a TGI [37] greater than 100 µM, a TGI [38] greater than 100 µM and a TGI [39] greater than 100 µM. For the same molecule, the TGI [40] was greater than 100 µM, the TGI [41] was greater than 77.4 µM and the TGI [42] was greater than 100 µM. For the same molecule, the TGI [43] was greater than 88 µM, the TGI [44] was greater than 46.5 µM and the TGI [45] was greater than 46.4 µM. For the same molecule, the TGI [46] was greater than 100 µM, the TGI [47] was greater than 60.4 µM and the TGI [48] was greater than 69 µM. For the same molecule, the TGI [49] was greater than 65.1 µM, the TGI [50] was greater than 100 µM and the TGI [51] was greater than 46.8 µM. The TGI [52] was greater than 100 µM, the TGI [53] was greater than 100 µM and the TGI [54] was greater than 56.6 µM. For the same molecule, the TGI [55] was greater than 55.3 µM, the TGI [56] was greater than 64.1 µM and the TGI [57] was greater than 100 µM. For the same molecule, the TGI [58] was greater than 100 µM.
With `COC(=O)C(C(=O)C(=O)Nc1ccc([N+](=O)[O-])cc1[N+](=O)[O-])c1nc2ccc(Cl)cc2[nH]c1=O` (stereo unspecified) the TGI [1] was greater than 100 µM, the TGI [2] was greater than 100 µM and the TGI [3] was greater than 100 µM. It also gave a TGI [4] greater than 100 µM, a TGI [5] greater than 100 µM and a TGI [6] greater than 100 µM. For the same molecule, the TGI [7] was greater than 100 µM, the TGI [8] was greater than 100 µM and the TGI [9] was greater than 100 µM. The TGI [10] was greater than 100 µM, the TGI [11] was greater than 100 µM and the TGI [12] was greater than 100 µM. For the same molecule, the TGI [13] was greater than 100 µM, the TGI [14] was greater than 100 µM and the TGI [15] was greater than 100 µM. The TGI [16] was greater than 100 µM, the TGI [17] was greater than 100 µM and the TGI [18] was greater than 100 µM. The TGI [19] was greater than 100 µM, the TGI [20] was greater than 100 µM and the TGI [21] was greater than 100 µM. It also gave a TGI [22] greater than 100 µM, a TGI [23] greater than 100 µM and a TGI [24] greater than 100 µM. For the same molecule, the TGI [26] was greater than 100 µM, the TGI [27] was greater than 100 µM and the TGI [28] was greater than 100 µM. The TGI [29] was greater than 100 µM, the TGI [30] was greater than 100 µM and the TGI [31] was greater than 100 µM. The TGI [32] was greater than 100 µM, the TGI [34] was greater than 100 µM and the TGI [35] was greater than 100 µM. For the same molecule, the TGI [36] was greater than 100 µM, the TGI [37] was greater than 100 µM and the TGI [38] was greater than 100 µM. It also gave a TGI [39] greater than 100 µM, a TGI [41] greater than 100 µM and a TGI [42] greater than 100 µM. It also gave a TGI [43] greater than 100 µM, a TGI [44] greater than 100 µM and a TGI [45] greater than 100 µM. It also gave a TGI [59] greater than 100 µM, a TGI [46] greater than 100 µM and a TGI [47] greater than 100 µM. The TGI [48] was greater than 100 µM, the TGI [49] was greater than 100 µM and the TGI [50] was greater than 100 µM. It also gave a TGI [52] greater than 100 µM, a TGI [53] greater than 100 µM and a TGI [55] greater than 100 µM. For the same molecule, the TGI [56] was greater than 100 µM, the TGI [57] was greater than 100 µM and the TGI [58] was greater than 100 µM.
Work on `CC(Nc1ccc(S(=O)(=O)N=C(N)N)cc1)c1c2ccccc2nc2ccccc12` (stereo unspecified) yielded a TGI [1] greater than 100 µM, a TGI [3] greater than 100 µM and a TGI [4] greater than 100 µM. It also gave a TGI [5] of 81 µM, a TGI [6] of 60.5 µM and a TGI [7] greater than 100 µM. It also gave a TGI [8] greater than 100 µM, a TGI [9] greater than 100 µM and a TGI [10] greater than 100 µM. For the same molecule, the TGI [11] was greater than 100 µM, the TGI [12] was 82.7 µM and the TGI [13] was greater than 10 µM. For the same molecule, the TGI [14] was greater than 100 µM, the TGI [15] was 39.2 µM and the TGI [18] was 55.5 µM. It also gave a TGI [19] greater than 100 µM, a TGI [20] greater than 100 µM and a TGI [21] of 99.4 µM. It also gave a TGI [22] greater than 100 µM, a TGI [23] greater than 100 µM and a TGI [24] greater than 100 µM. The TGI [25] was 80.6 µM, the TGI [26] was greater than 100 µM and the TGI [27] was greater than 100 µM. It also gave a TGI [28] of 65.6 µM, a TGI [29] of 48.1 µM and a TGI [30] of 80.4 µM. For the same molecule, the TGI [31] was 88.9 µM, the TGI [32] was 83.8 µM and the TGI [33] was 38 µM. The TGI [34] was greater than 10 µM, the TGI [35] was 31.3 µM and the TGI [36] was greater than 100 µM. The TGI [37] was 76.8 µM, the TGI [38] was 55.2 µM and the TGI [39] was 85.3 µM. The TGI [40] was 96.6 µM, the TGI [41] was greater than 100 µM and the TGI [42] was greater than 100 µM. For the same molecule, the TGI [43] was 63.4 µM, the TGI [44] was 61.9 µM and the TGI [45] was greater than 100 µM. The TGI [46] was 73.6 µM, the TGI [47] was greater than 100 µM and the TGI [48] was greater than 100 µM. It also gave a TGI [49] of 79.7 µM, a TGI [51] of 65.7 µM and a TGI [52] greater than 100 µM. The TGI [53] was greater than 100 µM, the TGI [54] was greater than 100 µM and the TGI [55] was 97.6 µM. The TGI [56] was greater than 10 µM, the TGI [57] was 65.6 µM and the TGI [58] was 36.1 µM.
